In US20210347727A1 (BLADE THERAPEUTICS, INC., priority 2017, published 2021):

Assays:
Human Calpain 1/NS1 = biological target: T1, Human Calpain 1/NS1 (Homo sapiens, UniProt P07384); experiment: Biochemical inhibition of calpain 1, continuous fluorescence (FRET substrate) assay; conditions: mean; read-out: Human Calpain 1/NS1 IC50 (nM)_MEAN
T1 sequence (P07384 1-714): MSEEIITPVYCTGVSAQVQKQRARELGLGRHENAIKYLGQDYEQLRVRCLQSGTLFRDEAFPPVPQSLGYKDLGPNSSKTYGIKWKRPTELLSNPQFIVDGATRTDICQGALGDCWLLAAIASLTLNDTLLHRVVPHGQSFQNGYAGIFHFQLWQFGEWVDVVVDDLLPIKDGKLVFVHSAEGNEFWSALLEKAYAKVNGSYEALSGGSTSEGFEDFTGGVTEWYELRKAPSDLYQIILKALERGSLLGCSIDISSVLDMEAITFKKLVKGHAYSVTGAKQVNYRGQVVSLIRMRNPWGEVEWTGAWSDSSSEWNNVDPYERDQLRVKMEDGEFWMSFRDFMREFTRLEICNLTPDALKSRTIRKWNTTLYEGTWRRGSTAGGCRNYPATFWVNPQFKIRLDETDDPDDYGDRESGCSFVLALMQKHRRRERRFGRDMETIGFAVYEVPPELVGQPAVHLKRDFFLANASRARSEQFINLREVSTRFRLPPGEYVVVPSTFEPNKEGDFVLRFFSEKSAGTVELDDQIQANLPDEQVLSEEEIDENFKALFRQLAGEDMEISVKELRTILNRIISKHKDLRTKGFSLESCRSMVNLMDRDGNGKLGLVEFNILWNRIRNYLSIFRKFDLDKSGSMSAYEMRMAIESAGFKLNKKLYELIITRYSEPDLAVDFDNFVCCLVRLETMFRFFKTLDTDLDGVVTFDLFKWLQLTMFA
T1 sequence (P04632 1-268 partner): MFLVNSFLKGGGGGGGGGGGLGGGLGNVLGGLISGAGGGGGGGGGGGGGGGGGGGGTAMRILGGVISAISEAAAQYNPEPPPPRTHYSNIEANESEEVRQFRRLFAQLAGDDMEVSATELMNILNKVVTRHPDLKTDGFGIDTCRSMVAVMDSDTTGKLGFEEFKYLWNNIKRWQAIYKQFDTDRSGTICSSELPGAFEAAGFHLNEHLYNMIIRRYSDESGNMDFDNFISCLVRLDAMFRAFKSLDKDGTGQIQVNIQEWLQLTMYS
Method: (§1) Calpain 1, 2, and 9 activity and inhibition thereof are assessed by means of a continuous fluorescence assay. The SensoLyte 520 Calpain substrate (Anaspec Inc) is optimized for detecting calpain activity. This substrate contains a novel internally quenched 5-FAM/QXL™ 520 FRET pair. Calpains 1, 2, and 9 cleave the FRET substrate into two separate fragments resulting in an increase of 5-FAM fluorescence that is proportional to calpain activity.
(§2) Assays are typically setup in black 384-well plates using automated liquid handling as follows. Calpain assay base buffer typically contains 50 mM Tris, pH 7.5, 100 mM NaCl and 1 mM DTT. Inhibitors are serially diluted in DMSO and used to setup 2× mixtures with calpains in the aforementioned buffer. After incubation at ambient temperature (25 C), the reaction is initiated by adding a 2× mix of the fluorescent peptide substrate and CaCl2 (required for in-situ calpain activation) in the same buffer. Reaction progress curve data are typically collected for 10 min using excitation/emission wavelengths of 490 nm/520 nm on SpectraMax i3x or the FLIPR-Tetra plate readers (Molecular Devices Inc). Reaction rates were calculated from progress curve slopes typically over 1-5 min. Dose response curves (rate vs. log inhibitor concentration) were typically fit to a 4-parameter logistic function to extract IC50 values.

Human Calpain 2/NS1 = biological target: T2, Human Calpain 2/NS1 (Homo sapiens, UniProt P17655); experiment: Biochemical inhibition of calpain 2, continuous fluorescence (FRET substrate) assay; conditions: mean; read-out: Human Calpain 2/NS1 1C50 [sic] (nM)_MEAN
T2 sequence (P17655 1-700): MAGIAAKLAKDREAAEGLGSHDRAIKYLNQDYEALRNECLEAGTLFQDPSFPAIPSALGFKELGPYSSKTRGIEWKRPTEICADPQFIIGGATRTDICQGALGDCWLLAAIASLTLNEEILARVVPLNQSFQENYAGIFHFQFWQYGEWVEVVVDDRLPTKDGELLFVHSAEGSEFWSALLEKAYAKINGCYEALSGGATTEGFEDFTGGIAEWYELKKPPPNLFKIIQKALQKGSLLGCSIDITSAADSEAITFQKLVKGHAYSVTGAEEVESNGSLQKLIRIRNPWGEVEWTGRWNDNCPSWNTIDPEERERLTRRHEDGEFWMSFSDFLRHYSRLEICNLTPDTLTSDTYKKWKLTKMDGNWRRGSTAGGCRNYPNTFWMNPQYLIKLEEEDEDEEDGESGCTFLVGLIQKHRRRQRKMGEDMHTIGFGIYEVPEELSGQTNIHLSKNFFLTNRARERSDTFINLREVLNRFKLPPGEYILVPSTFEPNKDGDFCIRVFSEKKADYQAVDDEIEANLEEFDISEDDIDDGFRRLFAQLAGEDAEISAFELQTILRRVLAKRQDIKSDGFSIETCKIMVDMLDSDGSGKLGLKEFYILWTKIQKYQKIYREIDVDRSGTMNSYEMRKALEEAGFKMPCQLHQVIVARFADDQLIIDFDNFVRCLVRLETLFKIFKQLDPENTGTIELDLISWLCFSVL
T2 sequence (P04632 1-268 partner): T1 sequence (P04632 1-268 partner)
Method: as §1, §2

Human Calpain 9/NS1 = biological target: T3, Human Calpain 9/NS1 (Homo sapiens, UniProt O14815); experiment: Biochemical inhibition of calpain 9, continuous fluorescence (FRET substrate) assay; conditions: mean; read-out: Human Calpain 9/NS1 IC50 (nM)_MEAN
T3 sequence (O14815 1-690): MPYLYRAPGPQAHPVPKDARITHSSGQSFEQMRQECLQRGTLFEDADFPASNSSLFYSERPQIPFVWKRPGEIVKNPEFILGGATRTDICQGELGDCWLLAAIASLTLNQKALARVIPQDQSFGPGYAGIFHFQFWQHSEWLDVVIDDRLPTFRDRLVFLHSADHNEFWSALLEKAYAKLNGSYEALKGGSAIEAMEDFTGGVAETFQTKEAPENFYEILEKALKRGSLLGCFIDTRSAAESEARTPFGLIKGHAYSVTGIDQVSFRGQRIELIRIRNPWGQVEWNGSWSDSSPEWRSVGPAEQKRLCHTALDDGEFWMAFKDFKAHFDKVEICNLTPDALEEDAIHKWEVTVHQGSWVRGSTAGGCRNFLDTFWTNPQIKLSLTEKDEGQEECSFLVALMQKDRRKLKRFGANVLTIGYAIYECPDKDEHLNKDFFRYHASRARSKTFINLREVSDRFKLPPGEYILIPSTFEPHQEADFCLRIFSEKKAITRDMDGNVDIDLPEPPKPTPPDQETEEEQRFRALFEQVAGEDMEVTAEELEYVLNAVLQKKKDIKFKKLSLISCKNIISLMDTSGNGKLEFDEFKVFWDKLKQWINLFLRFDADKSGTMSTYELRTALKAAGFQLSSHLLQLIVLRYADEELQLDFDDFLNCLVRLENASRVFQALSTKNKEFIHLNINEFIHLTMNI
T3 sequence (P04632 1-268 partner): T1 sequence (P04632 1-268 partner)
Method: as §1, §2

[1] = tested on: calpain activity in SH-SY5Y cells; experiment: SH-SY5Y cellular calpain activity, Suc-LLVY-AMC fluorescence assay; format: cell-based; conditions: Suc-LLVY-AMC substrate
Method: Calpain activity in SH-SY5Y cells and inhibition thereof were assessed by means of a homogeneous, fluorescence assay that uses the cell-permeable and pro-fluorescent calpain substrate Suc-LLVY-AMC (Sigma-Aldrich Inc). Upon intracellular calpain cleavage of Suc-LLVY-AMC, fluorescent amino-methyl-coumarin (AMC) is released into the media resulting in a continuous increase in fluorescence signal that is proportional to intra-cellular calpain activity.
Assays were typically setup by seeding SH-SY5Y cells in black 384-well plates at 40 k/per well in RPMI-1640 containing 1% serum followed by 37 C overnight incubation. Next morning, cells were pre-incubated for 30 min with serially diluted compounds followed by addition of 100 uM of Suc-LLVY-AMC substrate. The continuous increase in AMC fluorescence is monitored using a FLIPR, Tetra plate reader (Molecular Devices Inc) and slopes measured to report calpain activity. Dose response curves (slopes vs. log inhibitor concentration) were typically fit to a 4-parameter logistic function to extract IC50 values.

[2] = tested on: calpain activity in SH-SY5Y cells (Spectrin); experiment: SH-SY5Y Spectrin cellular calpain inhibition; format: cell-based

| Compound | IC50 (Human Calpain 1/NS1) [nM] | IC50 (Human Calpain 2/NS1) [nM] | IC50 (Human Calpain 9/NS1) [nM] | IC50 [1] [µM] | IC50 [2] [µM] |
| --- | --- | --- | --- | --- | --- |
| NC(=O)C(=O)[C@H](Cc1ccccc1)NC(=O)c1c(C(F)(F)F)cccc1C(F)(F)F [Compound 20, (S)—N-(4-AMINO-3,4-DIOXO-1-PHENYLBUTAN-2-YL)-2,6-BIS(TRIFLUOROMETHYL)BENZAMIDE] | < 3000 | 3000 to 10000 | < 3000 | 10 to 25 | – |
| NC(=O)C(=O)C(Cc1ccccc1)NC(=O)C1c2ccccc2Oc2ccccc21 (stereo not drawn) [Compound 5, N-(4-AMINO-3,4-DIOXO-1-PHENYLBUTAN-2-YL)-9H-XANTHENE-9-CARBOXAMIDE] | < 3000 | < 3000 | < 3000 | – | > 25 |
| NC(=O)C(=O)C(Cc1ccccc1)NC(=O)N1c2ccccc2Oc2ccccc21 (stereo not drawn) [Compound 6, N-(4-AMINO-3,4-DIOXO-1-PHENYLBUTAN-2-YL)-10H-PHENOXAZINE-10-CARBOXAMIDE] | < 3000 | < 3000 | > 10000 | > 25 | – |
| NC(=O)C(=O)[C@H](Cc1ccccc1)NC(=O)c1ccc(-c2ccccc2)cc1 [Compound 23, (S)—N-(4-AMINO-3,4-DIOXO-1-PHENYLBUTAN-2-YL)-[1,1′-BIPHENYL]-4-CARBOXAMIDE] | < 3000 | > 10000 | > 10000 | < 10 | – |
| NC(=O)C(=O)[C@H](Cc1ccccc1)NC(=O)c1ccccc1Br [Compound 36, (S)—N-(4-AMINO-3,4-DIOXO-1-PHENYLBUTAN-2-YL)-2-BROMOBENZAMIDE] | < 3000 | < 3000 | < 3000 | < 10 | – |
| NC(=O)C(=O)C(Cc1ccccc1)NC(=O)C1c2ccccc2-c2ccccc21 (stereo not drawn) [Compound 10, N-(4-AMINO-3,4-DIOXO-1-PHENYLBUTAN-2-YL)-9H-FLUORENE-9-CARBOXAMIDE] | > 10000 | 3000 to 10000 | > 10000 | 10 to 25 | – |
| NC(=O)C(=O)C(Cc1ccccc1)NC(=O)n1c2ccccc2c2ccccc21 (stereo not drawn) [Compound 8, N-(4-AMINO-3,4-DIOXO-1-PHENYLBUTAN-2-YL)-9H-CARBAZOLE-9-CARBOXAMIDE] | 3000 to 10000 | > 10000 | > 10000 | > 25 | – |
| NC(=O)C(=O)[C@H](Cc1ccccc1)NC(=O)c1ccc(F)cc1 [Compound 4, (S)—N-(4-AMINO-3,4-DIOXO-1-PHENYLBUTAN-2-YL)-4-FLUOROBENZAMIDE] | > 10000 | 3000 to 10000 | 3000 to 10000 | 10 to 25 | – |
| COc1ccc(Cl)cc1C(=O)N[C@@H](Cc1ccccc1)C(=O)C(N)=O [Compound 17, (S)—N-(4-AMINO-3,4-DIOXO-1-PHENYLBUTAN-2-YL)-5-CHLORO-2-METHOXYBENZAMIDE] | < 3000 | < 3000 | < 3000 | < 10 | – |

The next lines start with the values.

| IC50 (Human Calpain 1/NS1) [nM] | IC50 (Human Calpain 2/NS1) [nM] | IC50 (Human Calpain 9/NS1) [nM] | IC50 [1] [µM] | IC50 [2] [µM] | Compound |
| --- | --- | --- | --- | --- | --- |
| > 10000 | > 10000 | 3000 to 10000 | > 25 | – | COc1cccc(OC)c1C(=O)N[C@@H](Cc1ccccc1)C(=O)C(N)=O [Compound 18, (S)—N-(4-AMINO-3,4-DIOXO-1-PHENYLBUTAN-2-YL)-2,6-DIMETHOXYBENZAMIDE] |
| < 3000 | < 3000 | < 3000 | < 10 | – | NC(=O)C(=O)C(Cc1ccccc1)NC(=O)c1cccc(F)c1 (stereo not drawn) [Compound 25, N-(4-AMINO-3,4-DIOXO-1-PHENYLBUTAN-2-YL)-3-FLUOROBENZAMIDE] |
| < 3000 | < 3000 | < 3000 | > 25 | – | NC(=O)C(=O)[C@H](Cc1ccccc1)NC(=O)c1c(Cl)cccc1-c1ccccc1 [Compound 21, (S)—N-(4-AMINO-3,4-DIOXO-1-PHENYLBUTAN-2-YL)-3-CHLORO-[1,1′-BIPHENYL]-2-CARBOXAMIDE] |
| < 3000 | < 3000 | < 3000 | > 25 | – | NC(=O)C(=O)[C@H](Cc1ccccc1)NC(=O)c1c(Cl)cccc1C(F)(F)F [Compound 19, (S)—N-(4-AMINO-3,4-DIOXO-1-PHENYLBUTAN-2-YL)-2-CHLORO-6-(TRIFLUOROMETHYL)BENZAMIDE] |
| < 3000 | < 3000 | < 3000 | < 10 | – | Cc1cccc(C(=O)NC(Cc2ccccc2)C(=O)C(N)=O)c1C (stereo not drawn) [Compound 26, N-(4-AMINO-3,4-DIOXO-1-PHENYLBUTAN-2-YL)-2,3-DIMETHYLBENZAMIDE] |
| < 3000 | < 3000 | < 3000 | < 10 | – | O=C(NC1CC1)C(=O)[C@H](Cc1ccccc1)NC(=O)c1c(Cl)cccc1Cl [Compound 2, (S)-2,6-DICHLORO-N-(4-(CYCLOPROPYLAMINO)-3,4-DIOXO-1-PHENYLBUTAN-2-YL)BENZAMIDE] |
